According to US20160177261A1, “METHODS OF INDUCING AND PREVENTING NEUROFIBROMATOSIS IN SCHWANN CELLS” (University of Central Florida Research Foundation, Inc., priority 2007, published 2016):
Entries after “also recorded” stand apart in the source; their conditions may differ.

Key:
Format in all cases: cell-based, rat
P-ErbB2 = experiment: Western blot densitometry of phosphorylated ErbB2 in subconfluent SCs; details: NRG1 10 ng/ml 30 min with AG825 (1 μM)
Procedure: (§1) FIG. 3: NRG1 stimulates phosphorylation of Sch by PKA. A, C) Subconfluent SC cultures grown on PLL were serum-starved overnight and were stimulated for 30 minutes with NRG1 (10 ng/ml) in the absence and presence of AG825 (1 μM). Western blot analysis was used to determine the levels of phosphorylated and total ErbB2, Sch, and Pak. B, D) Quantification of the western blots of starved (D0.5), NRG1 stimulated (NRG) and NRG1 plus AG825 (N+A) stimulated cultures is shown. E) Subconfluent SCs grown as above were stimulated for 30 minutes with NRG in the presence and absence of PKI 14-22 (50 nM), and with forskolin (FSK; 2 μM) alone. F) Quantification of the Western blots for ErbB2, Sch, and Pak in starved (D0.5) cultures, and in those stimulated with NRG1 (NRG), NRG1 with PKI 14-22 (N+P), and forskolin (FSK) is shown. GAPDH was used as a loading control for all blots. The graphs represent the average fold increase in each condition in three or more experiments. Error bars represent the SEM for each condition. […]
Primary rat SCs were grown to approximately 60% confluency on PLL coated dishes. […] Following extraction, the SC lysate was measured for protein concentration, and […] of total SC lysate was separated by SDS-PAGE and was transferred to PVDF membranes. […] Bands intensities were quantified and normalized to GAPDH, and to their respective total proteins for phosphorylated forms. […]

PS518-Sch = experiment: Western blot densitometry of Sch-S518 phosphorylation in subconfluent SCs
Procedure: FIG. 3: NRG1 stimulates phosphorylation of Sch by PKA. A, C) Subconfluent SC cultures grown on PLL were serum-starved overnight and were stimulated for 30 minutes with NRG1 (10 ng/ml) in the absence and presence of AG825 (1 μM). Western blot analysis was used to determine the levels of phosphorylated and total ErbB2, Sch, and Pak. B, D) Quantification of the western blots of starved (D0.5), NRG1 stimulated (NRG) and NRG1 plus AG825 (N+A) stimulated cultures is shown. E) Subconfluent SCs grown as above were stimulated for 30 minutes with NRG in the presence and absence of PKI 14-22 (50 nM), and with forskolin (FSK; 2 μM) alone. F) Quantification of the Western blots for ErbB2, Sch, and Pak in starved (D0.5) cultures, and in those stimulated with NRG1 (NRG), NRG1 with PKI 14-22 (N+P), and forskolin (FSK) is shown. GAPDH was used as a loading control for all blots. The graphs represent the average fold increase in each condition in three or more experiments. Error bars represent the SEM for each condition. P values are <0.05(*) with respect to starved SCs or as indicated.
(§2) FIG. 4: Soluble Laminin-1 Stimulates Phosphorylation of Sch. A, C) Subconfluent SC cultures grown on PLL were stimulated with laminin-1 (10 μg/ml) for 30 minutes after overnight serum starvation. Western blot analysis using antibodies specific for the phosphorylated forms of Sch (PS518-Sch) and Pak (P-Pak) and antibodies against total Sch (Sch-C18), Pak, and β1 integrin are shown. B, D). Quantification of Western blots for starved (D0.5) and laminin-1 stimulated (Lam) cultures is shown. The graphs represent the average fold increase in each condition observed in three or more experiments. GAPDH was used as a loading control for all blots. Error bars represent the SEM for each condition. P values are <0.05(*) and <0.01(**).
Subconfluent SC cultures grown on PLL were serum-starved overnight and were stimulated for 30 minutes with NRG1 (10 ng/ml) and laminin-1 ([…]) together, in the absence and presence of AG825 (1 μM). A, C, E, G) Western blot analyses were conducted using phospho-specific antibodies for Sch (PS518-Sch), Pak (P-Pak), and CREB (P-CREB). Total protein expression was analyzed using antibodies against Sch (Sch-C18), Pak, β1 integrin, and ErbB2. B, D, F) Quantification of the expression levels of phosphorylated forms of Sch (PS518-Sch) and Pak (P-Pak) were assessed in starved (D0.5), NRG1 and laminin-1 stimulated (NRG+Lam), and NRG1 plus laminin-1 and AG825 (N+L+A) stimulated cultures. The amount of total Sch (Sch-C18), Pak, β1 integrin, and ErbB2 proteins were measured by densitometry. GAPDH was used as a loading control. The graphs represent the average fold increase in each condition in three or more experiments. Error bars represent the SEM for each condition. […]

P-Pak = experiment: Western blot densitometry of phosphorylated Pak in subconfluent SCs
Procedure: as §1, with “shown.” for “shown. GAPDH was used as a loading control for all blots. The graphs represent the average fold increase in each condition in three or more experiments. Error bars represent the SEM for each condition.”
FIG. 4: Soluble Laminin-1 Stimulates Phosphorylation of Sch. […] Quantification of Western blots for starved (D0.5) and laminin-1 stimulated (Lam) cultures is shown. […]
Subconfluent SC cultures grown on PLL were serum-starved overnight and were stimulated for 30 minutes with NRG1 (10 ng/ml) and laminin-1 ([…]) together, in the absence and presence of AG825 (1 μM). […] Total protein expression was analyzed using antibodies against Sch (Sch-C18), Pak, β1 integrin, and ErbB2. […] The amount of total Sch (Sch-C18), Pak, β1 integrin, and ErbB2 proteins were measured by densitometry. […]

P-CREB = experiment: Western blot of phosphorylated CREB in subconfluent SCs
Procedure: as §1, with “shown.” for “shown. GAPDH was used as a loading control for all blots. The graphs represent the average fold increase in each condition in three or more experiments. Error bars represent the SEM for each condition.”
(§3) Subconfluent SC cultures grown on PLL were serum-starved overnight and were stimulated for 30 minutes with NRG1 (10 ng/ml) and laminin-1 ([…]) together, in the absence and presence of AG825 (1 μM). […] Total protein expression was analyzed using antibodies against Sch (Sch-C18), Pak, β1 integrin, and ErbB2. B, D, F) Quantification of the expression levels of phosphorylated forms of Sch (PS518-Sch) and Pak (P-Pak) were assessed in starved (D0.5), NRG1 and laminin-1 stimulated (NRG+Lam), and NRG1 plus laminin-1 and AG825 (N+L+A) stimulated cultures. […]

ErbB2 = experiment: Western blot densitometry of total ErbB2 protein in subconfluent SCs
Procedure: as §1, with “experiments.” for “experiments. Error bars represent the SEM for each condition.”
(§4) FIG. 6: β1 integrin and ErbB2 Exist as a Complex on the Plasma Membrane. […] E) Quantification of total β1 integrin and ErbB2 expression was assessed by densitometry in starved (D0.5), NRG1 stimulated (NRG) and NRG with AG825 (N+A) stimulated cultures. […] G) Quantification of total β1 integrin and ErbB2 expression in starved (D0.5), laminin-stimulated (Lam) and laminin+AG825 (L+A) stimulated cultures is shown. […]

β1 integrin = experiment: Western blot densitometry of total β1 integrin protein in subconfluent SCs
Procedure: as §2
as §4, with “Membrane. A) Subconfluent SC cultures grown on PLL and laminin-1 were starved overnight and were stimulated with NRG1 for 30 minutes. SCs were triple-labeled with the indicated antibodies to assess protein co-localization.” for “Membrane.”
as §3, with “cultures. The amount of total Sch (Sch-C18), Pak, β1 integrin, and ErbB2 proteins were measured by densitometry.” for “cultures.”

Pak = experiment: Western blot densitometry of total Pak protein in subconfluent SCs; details: NRG1 and laminin-1 30 min in the presence and absence of AG825
Procedure: as §2
as §3, with “cultures. The amount of total Sch (Sch-C18), Pak, β1 integrin, and ErbB2 proteins were measured by densitometry.” for “cultures.”

Sch = experiment: Western blot densitometry of total Sch (Sch-C18) protein in subconfluent SCs; details: NRG1 and laminin-1 30 min in the presence and absence of AG825
Procedure: as §2
as §3, with “cultures. The amount of total Sch (Sch-C18), Pak, β1 integrin, and ErbB2 proteins were measured by densitometry.” for “cultures.”

[1] = AG825 in the absence of NRG1 (data not shown)
[2] = NRG1 and laminin-1 30 min in the presence of AG825 (1 μM), compared to starved SCs

For `COc1cc(/C=C(\C#N)C(N)=O)cc(CSc2nc3ccccc3s2)c1O` [AG825], the “effect on NRG1 stimulated phosphorylation of ErbB2” value (P-ErbB2) was “reduced NRG1 stimulated phosphorylation of ErbB2 significantly”, the “effect on basal level of phosphorylated Sch” value (PS518-Sch; [1]) was “increases basal levels” and the “reduction of Sch-S518 phosphorylation in response to NRG1” value (PS518-Sch; NRG1 10 ng/ml 30 min with inhibitor (AG825 1 μM or PKI 14-22 50 nM)) was 50%. For the same molecule, the “effect on NRG1 stimulated Sch-S518 phosphorylation” value (PS518-Sch; NRG1 30 min with inhibitor (AG825 1 μM or PKI 14-22 50 nM)) was “reduced”, the PS518-Sch fold increase (PS518-Sch; [2]) was 4.6 fold and the “effect on basal level of phosphorylated Pak” value (P-Pak; [1]) was “increases basal levels”. For the same molecule, the P-Pak fold increase (P-Pak; [2]) was 3.1 fold, the “effect on NRG1 stimulated CREB phosphorylation” value (P-CREB; NRG1 30 min with inhibitor (AG825 or PKI 14-22 50 nM)) was “inhibit this phosphorylation” and the “effect on CREB phosphorylation in dually stimulated SCs” value (P-CREB; NRG1 and laminin-1 30 min with AG825 (1 μM)) was “inhibited phosphorylation of CREB; also recorded: eliminated”. The “effect on NRG1 induced change of ErbB2 protein levels” value (ErbB2; NRG1 30 min with AG825 (1 μM)) was “attenuated the reduction in ErbB2 levels; also recorded: suppressed NRG1's effect; also recorded: attenuates the loss of ErbB2 protein”, the “effect on ErbB2 levels” value (ErbB2; laminin-1 30 min with AG825 (1 μM), with respect to laminin-stimulated SCs) was “did not alter” and the “effect on NRG1 induced increase of β1 integrin protein levels” value (β1 integrin; NRG1 30 min with AG825 (1 μM)) was “suppressed NRG1's effect; also recorded: inhibits the increase in β1 integrin”. For the same molecule, the “effect on β1 integrin protein levels” value (β1 integrin; NRG1 and laminin-1 30 min in the presence and absence of AG825) was “not significantly changed”, the “decrease in β1 integrin levels” value (β1 integrin; laminin-1 30 min with AG825 (1 μM)) was 50% and the “effect on Pak protein levels” value (Pak) was “not significantly changed”. The “effect on Sch protein levels” value (Sch) was “not significantly changed”.
